From patent US7829688B2, “Peptides of CaV2.2 that inhibit pain” (The Board of Regents of the University of Texas System, priority 2004, dated 2010)
Ends that are not written are not given here.

Assays:
GST-Mint1-PDZ1/2 protein [1] = test: HTRF assay of bio-NC peptide association with GST-Mint1-PDZ1/2; type: binding; conditions: 1000 nM with 1000 nM GST-Mint1-PDZ1/2
GST-Mint1-PDZ1/2 protein [2] = test: ALPHA (AlphaScreen) assay of bio-NC peptide association with GST-Mint1-PDZ1/2; type: binding; conditions: with GST-Mint1-PDZ-1/2, 189 nM concentration
formalin response [3] = test: Formalin assay in rats after i.v. (tail vein) injection of peptide; type: in vivo; conditions: rat, tail vein injection 1 mM
Protocol: FIG. 2—Supression of phase II, but not phase I formalin response in rats injected with R9-QDHWC peptide. The effect of i.v. administration of PBS, R9 (1 mM) or R9-QDHWC (1 mM) on phase I and phase II of the formalin assay. Phase I represents the period from 0-10 min following formalin injection and phase II represents the period from 11-60 min following formalin injection. N=4-7 rats per group. *** indicates a significant difference when compared to PBS injection (p<0.01).
As is shown in FIG. 2, the peptide R9-QDHWC (full sequence RRRRRRRRRQDHWC; SEQ ID NO_also inhibits phage II but not phase I responses in the rat formalin model. Male Sprague Dawley rats (175-225 gm) received a tail vein injection of either PBS, R9 (1 mM), or R9-QDHWC (1 mM) following which they were placed in a plexiglass observation chamber to allow for acclimation. Thirty minutes following the tail vein injection, the dorsal surface of one hind paw was injected with 50 ul of a 5% formalin solution. Observers, blind to drug treatment, scored the number of biting, licking, and scratching behaviors of the injected hindlimb and paw. Data were analyzed with SigmaStat Software (SPSS, Inc. v. 2.03) using ANOVA followed by a Tukey post hoc analysis.

[4] = tested on: mature hippocampal neuronal cultures; test: FM1-43 imaging, double-staining protocol (synaptic function); type: cell-based; conditions: neurons incubated with 50 μM peptide for 15 min; 90 mM KCl stimulation
Text: FIGS. 3A-D—Effects of R9-QDHWC peptides on synaptic function. Double-staining protocol is shown on the top. Results of first and second destaining are shown for representative puncta for control neurons (FIG. 3A), for neurons loaded with R9 peptide (FIG. 3B) and for neurons loaded with R9-QDHWC peptide (FIG. 3C). An average d2/d1 ratios are compared for all 3 groups of neurons (FIG. 3D).
An FM1-43 imaging was used to study synaptic effects of R9-QDHWC competitive peptide that corresponds to Mint-PDZ binding site on Cav2.2 subunit. In these experiments we adapted double-staining protocol from (Reuter, 1995). First the mature hippocampal neuronal cultures were stained with FM1-43 dye for 90 sec in the presence of 47 mM KCl (FIG. 3, top). Following staining and washout of the dye (10 min) the neurons were stimulated by 90 mM KCl and the initial rate of destaining (d1) was measured at each puncta (FIG. 3, top). After completion of the first destaining protocol, the same neuronal culture was re-stained with FM1-43 for 90 sec in the presence of 47 mM KCl. […] The initial rate of destaining (d2) was once again measured at each puncta (FIG. 3, top).
To compare the results obtained during first and second destaining protocols and to minimize puncta-to-puncta variability, the inventors calculated the d2/d1 ratios for each puncta.

formalin response [5] = test: Formalin assay in mouse, test compound injected into the hindpaw; type: in vivo; conditions: hindpaw injection
Protocol: FIGS. 1A & 1B—Supression of phase II, but not phase I formalin response in mouse injected with R9-NC peptide. FIG. 1A. Sequence of R9-NC peptide. FIG. 1B. Results of formalin assay in control mouse (n=8) and mouse injected with R9-NC 60 min prior to formalin injection (n=8). Phase I response (1-10 min from formalin injection) and phase II response (11-60 min from formalin injection) are shown.
First, animals are injected with a 10 μM (20 μl) solution of the test compound (dissolved in PBS) in the dorsal surface of the hindpaw. One hour following the injection of the test compound, animals receive a formalin injection (20 μl of a 5% solution) into the dorsal surface of the hindpaw. The contralateral paw is not injected. Following injection, animals are immediately transferred to a plexiglass observation cage. Each animal is observed for a total of 60 minutes following formalin injection. The period spent biting, scratching, or licking the injected hindpaw is recorded (pain score). Data is presented as cumulative time spent biting, scratching, and licking in phase I (0-10 min) and phase II (11-60 min).
One hour following delivery of either saline (control) or R9-NC into the dorsum of the hindpaw, formalin (20 μl of a 5% solution) was injected into the same hindpaw. No effect of R9-NC on phase I of the formalin assay was observed.

O=C(O)CCCC[C@@H]1SC[C@@H]2NC(=O)N[C@@H]21 [Biotin]
HTRF ratio (GST-Mint1-PDZ1/2 protein [1]): less than 0.04 | ALPHA signal (GST-Mint1-PDZ1/2 protein [2]): less than 1,500

RRRRRRRRR [R9, peptide permeant motif, used as control peptide]
formalin induced phase II behaviors vs PBS (formalin response [3]; 30 min before formalin, phase II 11-60 min): not significantly different | average d2/d1 ratio (initial rates of FM1-43 destaining) [4]: 0.55±0.15

RRRRRRRRRHSYHHPDQDHWC [R9-NC]
side effect when injected in the hindpaw (formalin response [5]): no untoward side effect

RRRRRRRRRQDHWC [R9-QDHWC, RRRRRRRRRQDHWC]
adverse effects of delivery of the peptide to rats (formalin response [3]): no apparent adverse effects
